Key:
Assay in all cases: KinomeScan profiling
Type in all cases: binding
EPHA2 = EPHA2 (Homo sapiens, UniProt P29317); conditions: EPHA2, 1 μM; read-out: % control
Protocol: (§1) The kinase selectivity of inventive compounds 77, 96 and 101 was evaluated by KinomeScan®. KinomeScan® analysis was performed against a near comprehensive panel of 468 kinases. The control percentage (% control) for inventive compounds at 1 μM in DMSO was determined by Equation 1: % control=(inventive compound−positive control)/(negative control−positive control)×100%, Equation 1
(§2) wherein the positive control is a compound with a % control value of 0% relative light units (RLU), and the negative control (i.e., DMSO) has % control value of 100% RLU. The enzyme selectivity in the present invention is defined as follows: inventive compounds are considered active for an enzyme when the observed % control is less than 35% (<35%).

ERK1 = ERK1 (Homo sapiens, UniProt P27361); conditions: ERK1, 1 μM; read-out: % control
Protocol: as §1, §2

FLT3(D835H) = target: T1, FLT3(D835H) (Homo sapiens, UniProt P36888, D835H); conditions: read-out: % control
T1 sequence (P36888 27-993 D835H): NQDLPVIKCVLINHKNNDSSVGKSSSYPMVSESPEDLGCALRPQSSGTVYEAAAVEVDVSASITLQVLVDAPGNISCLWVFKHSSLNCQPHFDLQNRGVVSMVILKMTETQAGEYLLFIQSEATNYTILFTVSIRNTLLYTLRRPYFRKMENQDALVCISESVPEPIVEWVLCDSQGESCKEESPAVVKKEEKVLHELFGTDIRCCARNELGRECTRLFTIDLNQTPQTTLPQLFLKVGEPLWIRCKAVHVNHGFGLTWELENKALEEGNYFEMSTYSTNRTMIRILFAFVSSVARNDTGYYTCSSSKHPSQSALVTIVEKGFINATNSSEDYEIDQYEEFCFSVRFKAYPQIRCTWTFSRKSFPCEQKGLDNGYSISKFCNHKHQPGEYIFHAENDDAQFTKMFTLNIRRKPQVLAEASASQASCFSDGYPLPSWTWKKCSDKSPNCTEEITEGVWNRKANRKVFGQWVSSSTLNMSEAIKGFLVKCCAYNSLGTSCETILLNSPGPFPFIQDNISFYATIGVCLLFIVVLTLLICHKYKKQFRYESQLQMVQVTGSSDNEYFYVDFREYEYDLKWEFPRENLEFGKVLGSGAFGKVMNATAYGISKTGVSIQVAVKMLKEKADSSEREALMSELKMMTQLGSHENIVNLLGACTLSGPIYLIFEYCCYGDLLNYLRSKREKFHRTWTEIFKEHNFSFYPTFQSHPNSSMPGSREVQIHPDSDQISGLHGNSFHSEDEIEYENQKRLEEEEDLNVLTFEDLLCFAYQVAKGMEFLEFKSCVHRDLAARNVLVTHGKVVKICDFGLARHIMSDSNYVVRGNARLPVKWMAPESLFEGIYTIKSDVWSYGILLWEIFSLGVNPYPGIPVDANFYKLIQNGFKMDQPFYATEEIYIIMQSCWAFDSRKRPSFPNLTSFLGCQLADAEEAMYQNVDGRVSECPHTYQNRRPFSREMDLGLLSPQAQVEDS
Protocol: as §1, §2

FLT3-autoinhibited = target: T2, FLT3-autoinhibited (Homo sapiens, UniProt P36888); conditions: read-out: % control
T2 sequence (P36888 564-993 limits assumed): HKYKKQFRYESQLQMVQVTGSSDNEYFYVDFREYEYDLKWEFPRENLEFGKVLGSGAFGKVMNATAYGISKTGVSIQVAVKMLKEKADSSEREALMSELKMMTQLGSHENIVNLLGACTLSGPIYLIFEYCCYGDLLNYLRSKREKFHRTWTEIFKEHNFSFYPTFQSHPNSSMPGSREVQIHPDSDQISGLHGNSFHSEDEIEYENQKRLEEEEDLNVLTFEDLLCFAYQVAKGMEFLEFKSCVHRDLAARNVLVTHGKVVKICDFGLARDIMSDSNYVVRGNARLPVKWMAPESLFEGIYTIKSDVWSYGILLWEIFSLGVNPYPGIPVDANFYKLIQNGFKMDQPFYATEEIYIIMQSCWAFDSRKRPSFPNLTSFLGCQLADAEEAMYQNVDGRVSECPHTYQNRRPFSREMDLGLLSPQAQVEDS
Protocol: as §1, §2

KIT(D816H) = target: T3, KIT(D816H) (Homo sapiens, UniProt P10721, D816H); conditions: read-out: % control
T3 construct: purchased KinomeScan®
Protocol: as §1, §2

MAP4K3 = target: T4, MAP4K3 (Homo sapiens, UniProt Q8IVH8); conditions: MAP4K3, 1 μM; read-out: % control
T4 sequence (Q8IVH8 1-894): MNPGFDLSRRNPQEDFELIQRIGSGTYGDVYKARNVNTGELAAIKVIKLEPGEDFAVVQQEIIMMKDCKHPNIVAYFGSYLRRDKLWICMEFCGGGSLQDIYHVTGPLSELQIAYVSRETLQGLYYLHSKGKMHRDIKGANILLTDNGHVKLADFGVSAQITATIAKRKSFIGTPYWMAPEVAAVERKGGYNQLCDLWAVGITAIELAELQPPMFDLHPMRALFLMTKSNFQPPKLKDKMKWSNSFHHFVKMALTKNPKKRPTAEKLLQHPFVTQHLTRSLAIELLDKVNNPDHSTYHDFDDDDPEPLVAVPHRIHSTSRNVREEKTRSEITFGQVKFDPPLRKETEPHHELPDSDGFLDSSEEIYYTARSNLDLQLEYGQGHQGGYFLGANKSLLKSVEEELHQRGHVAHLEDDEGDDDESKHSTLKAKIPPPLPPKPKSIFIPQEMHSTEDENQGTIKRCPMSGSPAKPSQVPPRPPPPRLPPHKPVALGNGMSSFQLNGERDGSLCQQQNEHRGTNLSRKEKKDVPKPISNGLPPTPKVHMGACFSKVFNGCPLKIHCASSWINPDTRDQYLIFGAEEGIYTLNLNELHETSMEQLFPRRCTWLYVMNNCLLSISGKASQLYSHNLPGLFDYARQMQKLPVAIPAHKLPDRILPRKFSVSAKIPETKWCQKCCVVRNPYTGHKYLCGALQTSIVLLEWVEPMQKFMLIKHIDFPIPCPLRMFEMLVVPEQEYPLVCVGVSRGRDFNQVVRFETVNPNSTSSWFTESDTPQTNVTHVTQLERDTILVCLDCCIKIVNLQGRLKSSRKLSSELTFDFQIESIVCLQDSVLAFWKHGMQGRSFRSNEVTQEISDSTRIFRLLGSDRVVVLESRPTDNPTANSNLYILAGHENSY
Protocol: as §1, §2

TRKA = TRKA (Homo sapiens, UniProt P04629); conditions: read-out: % control
Protocol: as §1, §2

WNK4 = WNK4 (Homo sapiens, UniProt Q96J92); conditions: WNK4, 1 μM; read-out: % control
Protocol: as §1, §2

Chain of ERK1 (P27361 whole entry): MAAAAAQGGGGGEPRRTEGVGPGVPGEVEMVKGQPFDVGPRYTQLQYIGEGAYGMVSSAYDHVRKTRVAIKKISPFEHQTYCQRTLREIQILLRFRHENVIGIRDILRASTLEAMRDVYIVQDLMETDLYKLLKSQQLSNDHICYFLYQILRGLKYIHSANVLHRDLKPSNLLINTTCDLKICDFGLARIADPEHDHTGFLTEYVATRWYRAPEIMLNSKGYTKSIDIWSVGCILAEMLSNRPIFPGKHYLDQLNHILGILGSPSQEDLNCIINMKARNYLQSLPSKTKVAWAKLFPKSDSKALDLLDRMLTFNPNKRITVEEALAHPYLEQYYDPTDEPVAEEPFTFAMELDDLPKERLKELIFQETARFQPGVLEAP
Chain of EPHA2 (P29317 24-976): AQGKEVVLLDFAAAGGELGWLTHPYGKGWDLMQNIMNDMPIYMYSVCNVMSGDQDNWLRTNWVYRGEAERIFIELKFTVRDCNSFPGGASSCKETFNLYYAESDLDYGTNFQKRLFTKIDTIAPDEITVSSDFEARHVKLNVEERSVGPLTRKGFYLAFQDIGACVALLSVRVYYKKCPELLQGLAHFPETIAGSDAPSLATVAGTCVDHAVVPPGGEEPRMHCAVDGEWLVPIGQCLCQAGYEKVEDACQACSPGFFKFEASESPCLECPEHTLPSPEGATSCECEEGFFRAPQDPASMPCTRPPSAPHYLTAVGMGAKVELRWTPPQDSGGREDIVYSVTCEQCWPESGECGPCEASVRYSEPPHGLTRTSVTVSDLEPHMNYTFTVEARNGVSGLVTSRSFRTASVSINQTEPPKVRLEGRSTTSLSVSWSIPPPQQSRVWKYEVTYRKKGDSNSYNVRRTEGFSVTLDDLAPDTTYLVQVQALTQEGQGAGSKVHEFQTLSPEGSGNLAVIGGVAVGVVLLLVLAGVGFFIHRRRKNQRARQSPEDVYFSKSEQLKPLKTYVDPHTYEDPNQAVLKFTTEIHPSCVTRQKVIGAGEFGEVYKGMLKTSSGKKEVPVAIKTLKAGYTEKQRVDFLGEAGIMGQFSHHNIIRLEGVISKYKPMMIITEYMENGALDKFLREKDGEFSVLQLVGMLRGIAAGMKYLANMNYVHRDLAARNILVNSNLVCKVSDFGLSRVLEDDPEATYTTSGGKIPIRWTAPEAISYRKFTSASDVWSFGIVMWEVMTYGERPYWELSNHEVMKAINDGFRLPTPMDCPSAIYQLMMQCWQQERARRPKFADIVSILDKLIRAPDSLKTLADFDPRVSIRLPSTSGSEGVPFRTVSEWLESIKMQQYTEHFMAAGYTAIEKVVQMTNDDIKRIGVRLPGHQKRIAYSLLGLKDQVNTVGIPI
T3 sequence (P10721 26-976 D816H): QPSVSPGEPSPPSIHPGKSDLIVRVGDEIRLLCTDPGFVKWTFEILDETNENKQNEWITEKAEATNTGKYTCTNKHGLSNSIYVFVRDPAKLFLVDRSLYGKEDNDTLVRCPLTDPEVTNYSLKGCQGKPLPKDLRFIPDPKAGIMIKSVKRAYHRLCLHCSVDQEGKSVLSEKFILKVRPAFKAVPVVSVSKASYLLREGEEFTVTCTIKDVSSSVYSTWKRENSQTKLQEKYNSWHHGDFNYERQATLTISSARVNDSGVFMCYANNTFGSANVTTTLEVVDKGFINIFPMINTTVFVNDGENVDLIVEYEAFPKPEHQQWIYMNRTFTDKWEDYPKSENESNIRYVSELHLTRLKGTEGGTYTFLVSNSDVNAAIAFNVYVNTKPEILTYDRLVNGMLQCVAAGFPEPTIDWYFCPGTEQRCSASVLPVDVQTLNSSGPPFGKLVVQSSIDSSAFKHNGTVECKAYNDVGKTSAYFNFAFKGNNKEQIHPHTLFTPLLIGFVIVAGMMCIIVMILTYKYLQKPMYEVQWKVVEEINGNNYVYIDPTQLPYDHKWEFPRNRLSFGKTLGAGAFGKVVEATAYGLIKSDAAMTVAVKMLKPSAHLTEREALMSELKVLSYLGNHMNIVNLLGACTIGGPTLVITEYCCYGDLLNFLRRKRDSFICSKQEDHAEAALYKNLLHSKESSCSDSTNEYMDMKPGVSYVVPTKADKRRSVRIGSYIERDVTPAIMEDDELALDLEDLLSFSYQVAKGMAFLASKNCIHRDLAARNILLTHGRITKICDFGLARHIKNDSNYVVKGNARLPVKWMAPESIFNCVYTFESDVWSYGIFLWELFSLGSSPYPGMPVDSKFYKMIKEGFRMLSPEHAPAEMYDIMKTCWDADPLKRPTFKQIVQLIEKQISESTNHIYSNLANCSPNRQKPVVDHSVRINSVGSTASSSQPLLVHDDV
Chain of WNK4 (Q96J92 whole entry): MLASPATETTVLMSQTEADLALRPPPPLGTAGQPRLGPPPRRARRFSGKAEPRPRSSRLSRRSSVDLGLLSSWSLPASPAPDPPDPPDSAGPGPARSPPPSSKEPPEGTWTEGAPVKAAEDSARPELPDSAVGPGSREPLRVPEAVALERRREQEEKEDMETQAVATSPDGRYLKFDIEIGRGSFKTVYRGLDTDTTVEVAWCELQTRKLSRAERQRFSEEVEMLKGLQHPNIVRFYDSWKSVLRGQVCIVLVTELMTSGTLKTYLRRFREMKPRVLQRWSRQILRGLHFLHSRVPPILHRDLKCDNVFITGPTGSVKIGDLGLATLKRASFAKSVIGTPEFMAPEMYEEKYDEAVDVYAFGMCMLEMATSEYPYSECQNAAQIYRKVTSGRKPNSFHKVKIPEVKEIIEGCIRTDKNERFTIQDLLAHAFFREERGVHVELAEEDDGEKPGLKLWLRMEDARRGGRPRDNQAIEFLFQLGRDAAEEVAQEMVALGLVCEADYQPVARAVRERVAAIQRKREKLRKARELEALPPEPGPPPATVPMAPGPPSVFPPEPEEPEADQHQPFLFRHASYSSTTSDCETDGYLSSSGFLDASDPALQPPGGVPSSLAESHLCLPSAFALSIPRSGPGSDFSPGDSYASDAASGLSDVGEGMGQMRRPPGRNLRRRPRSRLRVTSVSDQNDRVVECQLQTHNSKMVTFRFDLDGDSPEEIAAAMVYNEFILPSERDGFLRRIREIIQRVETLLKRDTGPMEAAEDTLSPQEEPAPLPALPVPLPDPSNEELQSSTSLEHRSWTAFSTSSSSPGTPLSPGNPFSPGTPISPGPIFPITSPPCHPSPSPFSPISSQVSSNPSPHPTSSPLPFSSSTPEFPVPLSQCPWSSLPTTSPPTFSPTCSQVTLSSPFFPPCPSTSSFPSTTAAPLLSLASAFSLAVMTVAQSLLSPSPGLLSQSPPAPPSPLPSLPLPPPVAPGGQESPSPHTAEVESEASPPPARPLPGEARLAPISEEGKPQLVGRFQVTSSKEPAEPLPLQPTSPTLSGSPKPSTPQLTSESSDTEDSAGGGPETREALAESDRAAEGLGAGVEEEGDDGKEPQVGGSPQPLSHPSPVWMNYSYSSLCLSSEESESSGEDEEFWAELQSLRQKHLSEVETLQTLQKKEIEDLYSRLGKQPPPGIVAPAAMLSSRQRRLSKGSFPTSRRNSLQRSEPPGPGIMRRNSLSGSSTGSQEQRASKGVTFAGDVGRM
Chain of TRKA (P04629 33-796): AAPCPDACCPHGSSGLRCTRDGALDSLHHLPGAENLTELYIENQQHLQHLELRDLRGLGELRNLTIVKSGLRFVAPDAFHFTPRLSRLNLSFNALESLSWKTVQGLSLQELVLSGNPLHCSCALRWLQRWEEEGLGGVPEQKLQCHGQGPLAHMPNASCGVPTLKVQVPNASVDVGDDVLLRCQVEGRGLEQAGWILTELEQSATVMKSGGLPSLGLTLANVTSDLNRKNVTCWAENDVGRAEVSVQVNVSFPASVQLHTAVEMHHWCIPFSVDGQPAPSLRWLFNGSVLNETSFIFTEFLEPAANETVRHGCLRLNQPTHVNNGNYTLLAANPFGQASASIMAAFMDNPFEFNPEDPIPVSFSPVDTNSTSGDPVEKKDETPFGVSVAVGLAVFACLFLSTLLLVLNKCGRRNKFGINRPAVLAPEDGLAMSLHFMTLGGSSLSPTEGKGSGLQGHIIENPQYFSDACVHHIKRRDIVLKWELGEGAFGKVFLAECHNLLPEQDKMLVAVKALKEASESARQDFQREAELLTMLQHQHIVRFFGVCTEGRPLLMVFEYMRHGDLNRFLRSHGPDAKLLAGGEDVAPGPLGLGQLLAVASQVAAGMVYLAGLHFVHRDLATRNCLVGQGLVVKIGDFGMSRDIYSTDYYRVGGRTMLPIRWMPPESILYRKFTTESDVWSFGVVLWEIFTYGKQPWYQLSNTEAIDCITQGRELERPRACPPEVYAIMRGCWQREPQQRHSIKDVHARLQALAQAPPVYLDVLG

Structure (SMILES)	remaining binding at 1 µM (EPHA2)	remaining binding at 1 µM (ERK1)	remaining binding at 1 µM (FLT3(D835H))	remaining binding at 1 µM (FLT3-autoinhibited)	remaining binding at 1 µM (KIT(D816H))	remaining binding at 1 µM (MAP4K3)	remaining binding at 1 µM (TRKA)	remaining binding at 1 µM (WNK4)
CNc1c(-c2ccc(C(=O)N3CCC(N4CCOCC4)CC3)cc2)cnc2[nH]cc(Cl)c12 [Compound 96, (4-(3-chloro-4-(methylamino)-1H-pyrrolo[2,3-b]pyridin-5-yl)phenyl)(4-morpholinopiperidin-1-yl)methanone]	100%	100%	9.9%	93%	75%	83%	11%	84%
O=C(c1ccc(-c2cnc3[nH]cc(Cl)c3c2NC2CCCC2)cc1)N1CCC(N2CCOCC2)CC1 [Compound 101, (4-(3-chloro-4-(cyclopentylamino)-1H-pyrrolo[2,3-b]pyridin-5-yl)phenyl)(4-morpholinopiperidin-1-yl)methanone]	30%	98%	41%	62%	92%	74%	49%	100%
CNc1c(-c2cnn([C@H]3CCN(C(C)=O)C[C@@H]3F)c2)cnc2[nH]cc(Cl)c12 [Compound 77, 1-((3S,4S)-4-(4-(3-chloro-4-(methylamino)-1H-pyrrolo[2,3-b]pyridin-5-yl)-1H-pyrazol-1-yl)-3-fluoropiperidin-1-yl)ethan-1-one]	96%	100%	7.9%	53%	51%	94%	0.65%	77%

From patent publication US12275731B2, “Azaindole inhibitors of wild-type and mutant forms of LRRK2” (DANA-FARBER CANCER INSTITUTE, INC., priority 2018, dated 2025)
